The target of test [1] is T1, LPLA2 (Homo sapiens, UniProt Q8NCC3).
T1 sequence (Q8NCC3 34-412): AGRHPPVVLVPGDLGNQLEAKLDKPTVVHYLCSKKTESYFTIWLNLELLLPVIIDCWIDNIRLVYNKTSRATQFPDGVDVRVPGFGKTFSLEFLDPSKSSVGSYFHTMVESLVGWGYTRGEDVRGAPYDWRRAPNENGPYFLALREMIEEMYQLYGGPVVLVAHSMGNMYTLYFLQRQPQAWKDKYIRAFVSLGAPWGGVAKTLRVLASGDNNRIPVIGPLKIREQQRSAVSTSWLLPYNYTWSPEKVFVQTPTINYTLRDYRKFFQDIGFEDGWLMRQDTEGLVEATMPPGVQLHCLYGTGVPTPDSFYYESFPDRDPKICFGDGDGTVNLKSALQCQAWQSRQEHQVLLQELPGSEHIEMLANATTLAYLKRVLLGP
Particulars: background description; cited from earlier work.

The target of test [2] is T2, recombinant mouse LPLA2 (Mus musculus, UniProt Q8VEB4).
T2 sequence (Q8VEB4 34-412): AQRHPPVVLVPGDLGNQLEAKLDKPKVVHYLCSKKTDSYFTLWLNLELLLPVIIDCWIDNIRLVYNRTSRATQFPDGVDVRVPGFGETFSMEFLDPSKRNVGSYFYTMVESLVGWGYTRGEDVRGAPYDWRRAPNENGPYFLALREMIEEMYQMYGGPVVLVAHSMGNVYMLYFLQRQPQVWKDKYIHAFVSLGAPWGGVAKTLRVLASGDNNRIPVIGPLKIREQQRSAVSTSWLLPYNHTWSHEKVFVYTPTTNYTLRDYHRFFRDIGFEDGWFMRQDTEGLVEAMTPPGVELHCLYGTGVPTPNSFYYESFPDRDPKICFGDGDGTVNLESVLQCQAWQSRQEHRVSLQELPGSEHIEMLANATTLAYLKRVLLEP
The test is described as follows: Co-sedimentation of LPLA2 with liposomes (ultracentrifugation, SDS-PAGE). In kind it is binding. Particulars: DOPC or DOPC/sulfatide (10:1) liposomes; 33 μM amiodarone; FIGS. 13B and 13C. The procedure: Liposomes consisting of DOPC or DOPC/sulfatide (10:1, molar ratio) were incubated with varying amounts of recombinant mouse LPLA2 in 500 μl of 48 mM Na-citrate (pH 4.5) for 30 min on ice (FIG. 13A). […] The reaction mixtures were centrifuged for 1 h at 150,000 g at 4° C. The concentration of DOPC in these assays was 127 μM. The resultant precipitates were briefly washed with cold 50 mM Na-citrate (pH 4.5) and dissolved with 40 μl of SDS-polyacrylamide gel electrophoresis sampling buffer. The samples were separated by using 12% SDS-polyacrylamide gel. After electrophoresis, LPLA2 was detected by staining with CBB.

The target of test [3] is T3, LPLA2 (Canis lupus familiaris, UniProt Q6XPZ3).
T3 construct: endogenous in cells; host or cells: MDCK cells
T3 sequence (Q6XPZ3 32-408): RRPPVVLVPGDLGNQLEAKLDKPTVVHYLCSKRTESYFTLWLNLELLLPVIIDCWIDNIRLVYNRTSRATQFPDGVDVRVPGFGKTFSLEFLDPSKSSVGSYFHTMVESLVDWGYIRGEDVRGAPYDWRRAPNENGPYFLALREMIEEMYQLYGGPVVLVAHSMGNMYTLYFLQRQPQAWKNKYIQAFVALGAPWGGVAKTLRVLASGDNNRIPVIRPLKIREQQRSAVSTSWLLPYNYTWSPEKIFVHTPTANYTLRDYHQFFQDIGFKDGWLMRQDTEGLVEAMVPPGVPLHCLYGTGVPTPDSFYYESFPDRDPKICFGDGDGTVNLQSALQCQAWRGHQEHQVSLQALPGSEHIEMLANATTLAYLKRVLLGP
Nature of the test: LPLA2 activity in MDCK cells treated with cationic amphiphilic drugs, measured as transacylation of N-acetylsphingosine. In kind it is cell-based. The protocol: LPLA2 activity was measured as the transacylation of N-acetylsphingosine. […] The major cellular phospholipids were assayed following 1 or 7 days of exposure to the CAD.

Test [4] deals with acidic transacylation of ceramide. Particulars: lysosomal fraction of cells; earlier observation; cited from earlier work.
The test system of test [5] is LPLA2 null alveolar macrophages. Nature of the test: Uptake of recombinant LPLA2 into LPLA2 null alveolar macrophages (Western blotting, confocal microscopy, enzyme activity). In kind it is cell-based, mouse. An excerpt:
Recombinant glycosylated mouse LPLA2 produced by HEK293 cells was applied to LPLA2-deficient (LPLA2−/−) mouse alveolar macrophages. […] Thus, the predominant pathway for uptake of exogenous LPLA2 is via the mannose receptor. (Abe et al., J. Immunol, 181(11):7873-81, 2008).
The ability of macrophages from LPLA2−/− mice to recognize, endocytose, and traffic recombinant LPLA2 was studied as follows. LPLA2 null alveolar macrophages were exposed to His-tagged mouse LPLA2 for 1 day at concentrations varying between 0.3 and 10 μg/ml. Cell incorporation was measured by Western blotting and confocal microscopy using either anti-His antibody or a monoclonal antibody raised to LPLA2.
(§1) Finally, the ability of the recombinant enzyme to “rescue” the cellular phenotype was confirmed by measuring the cellular phospholipid content.
Background: In western blotting, separated proteins are transferred to a membrane and probed.

For test [6] the test system is unchanged. Particulars: Abe et al. J. Immunol 2008; cited from earlier work.
Test [7] addresses T2, recombinant mouse LPLA2. Nature of the test: 1-O-acylceramide synthase (transacylase) activity of recombinant LPLA2 on liposomes, 1-O-oleoyl-NAS by HPTLC. In kind it is biochemical. Particulars: DOPC/sulfatide/NAS liposomes vs DOPC/NAS, pH 4.5, 5-45 min at 37° C.; FIGS. 11A and 11B.
Description: To address this possibility, the 1-O-acylceramide synthase activity of LPLA2 was studied in liposomes in which the anionic lipid content was varied by the addition of sulfatide, a negatively charged, sulfate containing glycolipid that is not a substrate for LPLA2. Di-octanoyl-PC (DOPC) was used as the liposomal substrate. The reaction mixture contained 48 mM sodium citrate (pH 4.5), 10 μg/ml BSA, liposomes (127 μM phospholipid) and 14.5 ng/ml of recombinant mouse LPLA2 in 500 μl of total volume. Liposomes consisting of DOPC/NAS (3:1, molar ratio) or DOP/sulfatide/NAS (3:0.3:1, molar ratio) were incubated with the enzyme for 5, 10, 15, 30 and 45 min at 37° C. The reaction products were extracted and separated by an HPTLC plate using a solvent system consisting of chloroform/acetic acid (9:1, v/v). The reaction product, 1-O-oleoyl-NAS, quantified by scanning the plate, was plotted against time (FIG. 11A). Liposomes consisting of DOPC/galactosylceramide/NAS or DOPC/sulfatide/NAS with a different molar ratio were incubated with the recombinant enzyme at 37° C. (FIG. 11B).
The test system of test [8] is LPLA2 null alveolar macrophages. Nature of the test: Rescue of cellular phospholipid content in LPLA2 null alveolar macrophages by recombinant enzyme. In kind it is cell-based, mouse. Particulars: LPLA2 null alveolar macrophages treated with enzyme.
Description: as §1

For the molecule `O=C1O/C(=C/Br)CCC1c1cccc2ccccc12` (centres unmarked) [bromoenollactone], the “inhibition of LPLA2 enzyme activity” value in test [1] is on record as “do not inhibit the enzyme activity”.
Turning to `CCCCC/C=C\C/C=C\C/C=C\C/C=C\CCCC(=O)C(F)(F)F` [nonadecyltetraenyl trifluoromethyl ketone], the “inhibition of LPLA2 enzyme activity” value in test [1] is reported as “do not inhibit the enzyme activity”.
Consider `CCCCc1oc2ccccc2c1C(=O)c1cc(I)c(OCCN(CC)CC)c(I)c1` [amiodarone], for which the “physical association between LPLA2 and liposomes” value in test [2] was “inhibited”.
On to `CCCCCCCCCC(=O)NC(CN1CCOCC1)C(O)c1ccccc1` (centres unmarked) [PDMP, 1-phenyl-2-decanoylamino-3-morpholino-1-propanol], for which the “inhibition of LPLA2 activity as measured by ceramide transacylation” value in test [3] (MDCK cells treated for 1 or seven days, FIG. 10A) is “concentration dependent inhibition of LPLA2 activity”. Moreover, in test [3] (MDCK cells, no numbers given), the “IC50 for enzyme inhibition” value is “comparable IC50s”. Also, the “inhibition of acidic transacylation of ceramide” value in test [4] was “inhibit acidic transacylation of ceramide”.
As to `COC1O[C@H](CO)[C@@H](O)[C@H](O)[C@@H]1O` (stereo partly drawn) [α-Methyl-mannoside, α-methyl-mannoside], in test [5] (10 mM, 1-O-acyl-ceramide synthase activity, immunoblotting, confocal microscopy), the “blocking of incorporation of recombinant LPLA2” value was “blocked the incorporation of LPLA2”. For the same molecule, the “suppression of uptake of exogenous LPLA2” value in test [6] is reported as “significantly suppressed”.
On to sulfatide, for which, in test [7], the “transacylation activity in presence of anionic lipid” value is reported as “time dependent increase in the transacylation activity”. Also, the “physical association between LPLA2 and liposomes” value in test [2] is “increased”.

B1: Recombinant glycosylated mouse LPLA2: Recombinant glycosylated mouse LPLA2 produced by HEK293 cells (protein, UniProt Q8VEB4 34-412, looked up)
Lysosomal phospholipase A and …: AQRHPPVVLVPGDLGNQLEAKLDKPKVVHYLCSKKTDSYFTLWLNLELLLPVIIDCWIDNIRLVYNRTSRATQFPDGVDVRVPGFGETFSMEFLDPSKRNVGSYFYTMVESLVGWGYTRGEDVRGAPYDWRRAPNENGPYFLALREMIEEMYQMYGGPVVLVAHSMGNVYMLYFLQRQPQVWKDKYIHAFVSLGAPWGGVAKTLRVLASGDNNRIPVIGPLKIREQQRSAVSTSWLLPYNHTWSHEKVFVYTPTTNYTLRDYHRFFRDIGFEDGWFMRQDTEGLVEAMTPPGVELHCLYGTGVPTPNSFYYESFPDRDPKICFGDGDGTVNLESVLQCQAWQSRQEHRVSLQELPGSEHIEMLANATTLAYLKRVLLEP
modifications: HEK293-produced glycosylated
notes: Recombinant glycosylated mouse LPLA2 produced by HEK293 cells
B1: the “uptake of exogenous LPLA2 into LPLA2−/− alveolar macrophages” value in test [6] is on record as “occurred in a concentration-dependent manner”.

B2: His-tagged mouse LPLA2: His-tagged recombinant mouse lysosomal phospholipase A2 applied to LPLA2 null alveolar macrophages (protein)
chain: AQRHPPVVLVPGDLGNQLEAKLDKPKVVHYLCSKKTDSYFTLWLNLELLLPVIIDCWIDNIRLVYNRTSRATQFPDGVDVRVPGFGETFSMEFLDPSKRNVGSYFYTMVESLVGWGYTRGEDVRGAPYDWRRAPNENGPYFLALREMIEEMYQMYGGPVVLVAHSMGNVYMLYFLQRQPQVWKDKYIHAFVSLGAPWGGVAKTLRVLASGDNNRIPVIGPLKIREQQRSAVSTSWLLPYNHTWSHEKVFVYTPTTNYTLRDYHRFFRDIGFEDGWFMRQDTEGLVEAMTPPGVELHCLYGTGVPTPNSFYYESFPDRDPKICFGDGDGTVNLESVLQCQAWQSRQEHRVSLQELPGSEHIEMLANATTLAYLKRVLLEP
modifications: left off: small tags and cut ends
notes: His-tagged recombinant mouse lysosomal phospholipase A2 applied to LPLA2 null alveolar macrophages
For B2, in test [5] (1 day at 0.3 to 10 μg/ml, Western blotting, confocal microscopy, enzyme activity), the “cellular LPLA2 (cell incorporation)” value is reported as “concentration dependent increase in cellular LPLA2”. Moreover, in test [5] (cells stained with anti-LPLA2 and Lamp-1 antibodies), the “co-localization with lysosome protein Lamp-1” value was “readily detected”. In addition, in test [8], the “cell phosphatidylcholine and phosphatidylethanolamine content” value was “concentration dependent decrease in cell phosphatidylcholine and phosphatidylethanolamine”.
